From patent US9675662B2, “Compositions for inhibition of RNA polymerase I and methods of production and use thereof” (The Board of Regents of the University of Oklahoma, priority 2011, dated 2017)
“Also recorded” adds a separate entry of the source. Read-outs that look alike come from different tables or passages of the source. Where no end group is shown, it is not given here. The star is where a group is joined. Biotin = O=C1N[C@H]2[C@H](CS[C@H]2CCCCC(=O)*)N1

How the values were obtained:
Rrn3 = biological target: T1, Rrn3 (Homo sapiens, UniProt Q9NYV6); assay: Binding of purified recombinant Rrn3 to streptavidin beads carrying biotinylated 22mer (pull-down, western blot); conditions: western blotting for Rrn3 (anti-FLAG)
T1 construct: made in house
T1 sequence (Q9NYV6 whole entry, species assumed): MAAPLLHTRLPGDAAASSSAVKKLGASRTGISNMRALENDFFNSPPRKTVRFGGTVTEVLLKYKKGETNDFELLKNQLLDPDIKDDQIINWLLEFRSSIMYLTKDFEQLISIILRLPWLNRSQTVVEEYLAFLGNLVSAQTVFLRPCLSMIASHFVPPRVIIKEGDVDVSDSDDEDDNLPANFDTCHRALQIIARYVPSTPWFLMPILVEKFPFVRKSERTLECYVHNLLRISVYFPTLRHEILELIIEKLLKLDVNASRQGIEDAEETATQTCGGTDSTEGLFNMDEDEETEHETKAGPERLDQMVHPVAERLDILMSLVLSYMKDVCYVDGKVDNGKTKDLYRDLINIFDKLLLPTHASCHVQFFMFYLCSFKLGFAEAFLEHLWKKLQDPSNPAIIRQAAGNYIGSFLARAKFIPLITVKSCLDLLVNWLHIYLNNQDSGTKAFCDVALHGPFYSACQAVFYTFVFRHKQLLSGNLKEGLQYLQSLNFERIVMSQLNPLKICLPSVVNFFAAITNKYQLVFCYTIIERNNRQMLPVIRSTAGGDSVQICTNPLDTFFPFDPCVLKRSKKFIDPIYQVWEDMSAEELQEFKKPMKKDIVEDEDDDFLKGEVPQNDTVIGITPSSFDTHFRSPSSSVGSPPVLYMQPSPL
Method: Immunoaffinity purified Rrn3 was incubated with streptavidin beads that had been preincubated with biotin-tagged 22mer or control extracts. After the beads were washed the proteins bound to the beads were analyzed by SDS-PAFE and western blotting for Rrn3 (anti-FLAG antibody).
In order to address that question, a biotinylated peptide made up of those 22 amino acids (biotin-[…] (SEQ ID NO:1)) was attached to streptavidin beads, and the ability to bind purified, recombinant Rrn3 was determined.

[1] = tested on: rDNA transcription (RNA polymerase I); assay: Cell-free rDNA transcription reaction (N1S1 nuclear extracts, rat rDNA promoter); format: biochemical; conditions: added in excess to transcription reaction
Source text: FIG. 6 illustrates squelching by excess Rpa43 or the peptide (22mer) that mediates the interaction between Rpa43 and Rrn3.
To test this model, recombinant Rpa43 was purified and added to cell free transcription reactions to determine if excess Rpa43 could inhibit transcription. The components added to this reaction included nuclear extracts of N1S1 cells (a rat tumor cell line), and recombinant DNA of the rat rDNA promoter and the purified, recombinant Rpa43 or purified synthetic peptides (FIG. 6). […] A similar series of experiments was then undertaken with synthetic peptides. The two peptides were based on the sequence of the region shown to be required for the interaction between Rrn3 and Rpa43 (FIG. 6, Panel B).

293T cells = assay: Growth of 293T-based cell lines expressing doxycycline-inducible peptide; conditions: peptide expressed in cells grown in doxycycline; versus Ψ peptide
Source text: To confirm and extend these studies, cell lines were constructed that were based on 293T cells (Invitrogen, Carlsbad, Calif.), that expressed doxycycline-inducible 22mer or the random peptide (Ψ). […] N.B., there was an inhibition of growth.

N1S1 rat hepatoma cells = assay: Growth of N1S1 hepatoma cells after peptide transduction; format: cell-based
Method: FIG. 14 illustrates the effects of TAT-22mer (labeled “STBY”) on the growth of N1S1 rat hepatoma cells.
FIG. 15 illustrates the effects of TAT-22mer (labeled “STBY”) on the growth of N1S1 rat hepatoma cells (fresh peptide added after 24 hours).
This effect was then tested […], i.e. with immortalized cells in tissue culture. There are several possible ways of introducing the desired peptide into cells. In a first experiment, ten amino acids, YGRKKEEQRR (SEQ ID NO:176), were added to the N-terminus of the 22mer peptide, […] (resulting in a sequence of […] (SEQ ID NO:175)); the ten amino acids were added to assist in transduction of the peptide into the cells. The TAT peptide is an NH2-terminal 11-amino acid protein transduction domain (PTD) from the human immunodeficiency virus (HIV) TAT protein that was first identified in 1988 by Green et al. This peptide and peptides like it are capable of transducing proteins across the cell membrane.
The effects of transducing the 22mer coupled to TAT peptide were then compared to TAT peptide alone. An aggressive chemically-induced hepatoma cell line (N1S1 cells) was used for these experiments.
(§1) When the sequence of the 22mer was examined, it was noted that it contains two cysteine residues that might form a disulfide bond and inhibit the activity of the peptide. To examine this question, the experiment previously carried out on the N1S1 cells was repeated using peptide that was dissolved in 0.1 mM […].

NIH 3T3 cells = assay: Growth of NIH 3T3 cells after 48 hours; format: cell-based; conditions: three plating densities, 40 and 60 μM
Method: FIG. 10 illustrates the effects of a TAT-tagged 22mer (TAT-22mer) composition of the presently disclosed inventive concept(s) on NIH 3T3 cells plated at three different densities after 48 hours.
However, it was possible that the same peptide would inhibit the growth of “normal” cells as well. To examine this possibility, TAT-tagged 22mer was added to the media of NIH 3T3 cells, and growth was measured after 48 hours.
(§2) In these experiments, and in others described below, cell numbers were determined using the […], and the absorbance at 570 nm is presented instead of cell numbers.

WI38 cells = assay: Growth of WI38 cells (MTT assay) and peptide uptake; format: cell-based; conditions: 48 hours
Method: FIG. 11 illustrates the effects of TAT-22mer on WI38 cells after 48 hours using the MTT assay.
as §2

A431 cells = assay: Growth of A431 cells plated at low density; format: cell-based; conditions: 72 hr
Method: FIG. 12 illustrates the effects of TAT-22mer on the growth of A431 cells plated at low density after 72 hr.
as §2

[2] = tested on: rDNA transcription in N1S1 cells; assay: [3H]-uridine incorporation into newly synthesized RNA in transduced N1S1 cells; format: cell-based, rat; conditions: 40 μM, eight hours after transduction
Method: FIG. 7 illustrates that transduction of the 22mer inhibits rDNA transcription in tissue culture cells. Low density cultures of N1S1 cells were transduced with the TAT-22mer (40 μM). Eight hours after transduction, the cells were incubated with tritiated uridine to label newly synthesized RNA. Total RNA was precipitated with TCA and collected on glass fiber filters, and the radioactivity incorporated was measured by liquid scintillation counting.

[3] = tested on: U937 human lymphoma cells; assay: Growth of U937 cells; format: cell-based
Method: FIG. 13 illustrates the effects of TAT-22mer on the growth of U937 cells after 24 hours.
as §2

[4] = tested on: P1798 mouse lymphosarcoma cells; assay: Growth and viability (Trypan blue exclusion) of P1798 lymphosarcoma cells; format: cell-based
Source text: FIG. 16 illustrates the effect of TAT-22mer on P1798 mouse lymphosarcoma cells.
FIG. 17 contains micrographs of P1798 mouse lymphosarcoma cells treated with TAT-22mer (“STBY peptide”) at indicated doses. The cells were stained with trypan blue to determine viability.
FIG. 18 illustrates the effects of TAT-22mer (TAT-STBY) and TAT-STBY C-Mu on P1798 mouse lymphosarcoma cells.
FIG. 19 illustrates the effects of TAT-22mer (TAT-STBY) and TAT-STBY C-Mu on the viability of P1798 mouse lymphosarcoma cells. The same cells studied in the experiment presented in FIG. 18, were also stained with Trypan blue to determine viability. The viable cell counts at 10 and 24 hrs of treatment were too low to be considered reliable (*).
FIG. 20 illustrates the effects of TAT-22mer (TAT-STBY) and TAT-STBY C-Mu on the viability of P1798 mouse lymphosarcoma cells as analyzed in FIGS. 18 and 19.
FIG. 21 illustrates the effects of TAT-22mer (TAT-STBY) and TAT-STBY C-Mu on P1798 mouse lymphosarcoma cells. P1798 Cells were treated with TAT-STBY C-Mu for 26 hours and then stained with Trypan blue. […] The treated cells were concentrated 20× for photography.
FIG. 22 illustrates the kinetics of cell death following treatment with C-Mu peptide. […] Cells were harvested by centrifugation every two hours, and the numbers of viable cells were determined using the Trypan blue exclusion assay.
as §1
In fact, automated cell-cell counting was inaccurate due to the increased amount of dead cells and debris (FIGS. 19-20).

Row | Substance | binding of Rrn3 to bead-bound peptide (Rrn3) | binding of Rrn3 to bead-bound peptide (Rrn3; listed as biotin-tagged 22mer) | inhibition of cell-free rDNA transcription [1] | cell growth / rate of cell division (293T cells) | N1S1 cell growth / cell division (N1S1 rat hepatoma cells) | appearance of N1S1 cells (N1S1 rat hepatoma cells; 40 μM, after 48 hr) | rate of N1S1 cell accumulation (N1S1 rat hepatoma cells; 20 and 40 μM) | growth of 3T3 cells (NIH 3T3 cells) | growth of WI38 cells (WI38 cells) | growth of A431 cells (A431 cells) | inhibition of rDNA transcription ([2]; inferred from uridine incorporation) [%] | inhibition of [3H]-uridine incorporation ([2]; low density N1S1 cultures) [%] | N1S1 cell growth / cell division (N1S1 rat hepatoma cells; listed as STBY) | decrease in number of treated N1S1 cells (N1S1 rat hepatoma cells; peptide dissolved in 0.1 mM reducing agent (dithiothreitol), fresh peptide added after 24 hours) [%] | growth of U937 cells [3] | growth of U937 cells at 80 μM ([3]; 80 μM, 24 hours) | growth of P1798 cells [4] | Trypan blue dye exclusion by P1798 cells ([4]; 40 μM) | response of P1798 cells at 40 micromolar ([4]; 40 micromolar, cells grown in a reducing medium) | number of viable P1798 cells ([4]; photomicrographs, Trypan blue)
1 | Biotin-NKVSSSHIGCLVHGCFNASIPK (cysteine pairing not given here) [biotinylated 22mer] | Rrn3 bound to beads | sufficient to mediate interaction between Rpa43 and Rrn3 | – | – | – | – | – | – | – | – | – | – | – | – | – | – | – | – | – | –
2 | NKVSSSHIGCLVHGCFNASIPK (listed as Homo sapiens) [22mer, amino acids 137 to 158 of mouse Rpa43] | – | – | inhibits transcription; also recorded: transcription was inhibited | inhibits cell growth; also recorded: significant decrease in the rate of cell division | inhibits cell division; also recorded: significantly inhibited cell growth in a dose-dependent manner | appeared to be apoptotic | decreased rate of cell accumulation | no effects on the growth | minimal effect on the growth | inhibited the growth | – | – | – | – | – | – | – | – | – | –
3 | YGRKKEEQRRNKVSSSHIGCLVHGCFNASIPK (1st ten amino acids are TAT peptide from HIV; last 22 amino acids are from Homo sapiens) [TAT-22mer, 22mer with ten TAT amino acids added to the N-terminus] | – | – | – | – | cell growth was inhibited | – | – | – | minimal effect on cell accumulation | – | ~100 | 70 | very significant effects on the growth | 90 | very significant effects on the growth | significant inhibition of cell growth | very significant effects on the growth | did not exclude the dye | significant response | significantly reduced the number of viable cells
